These results are taken from patent publication US20260200923A1, “HETEROCYCLIC COMPOUNDS TARGETING THE NUDT5 PROTEIN” (Oxford University Innovation Limited, priority 2022, published 2026).

What all share (format): cell-based
The target of one series is T1, luciferase-tagged NUDT5 (Homo sapiens, UniProt Q9UKK9).
T1 construct: expressed in transfected cells; host or cells: HEK293T
In words: NanoBRET target engagement assay. The settings on record: live cells, 2 h. As to the method:
For NanoBRET target engagement assay, intracellular TE Nano-Glo substrate/inhibitor (N2161, Promega) was used according to the manufacturer's instruction. In brief, 200,000 HEK293T cells/ml was seeded in a T-75 flask. N-terminal NanoLuciferse NUDT5 was reverse transfected into the cells using Fugene HD transfection reagent (E2312, Promega). After 24 h the transfected HEK293 (200,000 cells/ml) were replated onto a 384-well plate containing compounds. 2.5 nM NU008116a was used as the final tracer concentration. After 2 h, NanoLuc substrate and inhibitor was added into each well and the signals were measured by PHERAstar Microplate Reader.
Compounds were dispensed in the 384-well plates by using Echo Acoustic Dispenser.
(Bioluminescence resonance energy transfer reports proximity on the nanometre scale.)

The subject of another series is WT HAP1 cells. In words: growth of WT HAP1 cells. The settings on record: 72 h. As to the method: HAP1 (KBM7-derived, Horizon Discovery, C859), and HAP1 MTHFD1^KO, MTHFD1^K56R, and MTHFD1^K386E cell lines were cultured in Iscove's Modified Dulbecco's Medium (IMDM, Sigma), supplemented with 10% Fetal Bovine Serum (FBS, Sigma) and 1% Penicillin/Streptomycin (P/S, Sigma).
MTHFD1^KO cells in dialyzed FBS media were treated with a single nucleotide or folic acid metabolite for 72 hours. Cells were then stained with Hoechst, imaged, and counted using an Operetta (Perkin Elmer). For the AMPK activator studies, cells were stained with Hoechst, imaged, and counted using an Opera (Perkin Elmer). Similarly, MTHFD1^K56R cells in dialyzed FBS media were treated with adenosine for 72 hours. Cells were then stained with Hoechst, imaged, and counted using an Operetta (Perkin Elmer).

The test system of a further series is HAP-1 cells. In words: 6-thioguanine assay (CellTiter-Glo viability). The conditions noted are these: 0.2 μg/ml 6-thioguanine, 72 h; HAP1 (and NB4, FIG. 11). Here is the method: NB-4 and HAP1 cells (1000 cells/well in 40 uL) were seeded onto a 384-well plate containing compounds. DMSO or 0.2 μg/ml 6-thioguanine (A4882, Sigma-Aldrich) was added into respective wells. After 72 h incubation cell viability was measured by using CellTiter-Glo 2.0 Assay (G9242, Promega). Compounds in the 384-well plates were prepared by using Echo Acoustic Dispenser.

The next series deals with T2, NUDT5-PPAT interaction (Homo sapiens, UniProt Q9UKK9).
T2 construct: endogenous in cells; host or cells: HAP1 WT
In words: immunoprecipitation of endogenous PPAT. The settings on record: HAP1 cells, 100 nM, 20 h. Here is the method: For detecting TH5427 interactors and the PPAT-NUDT5 interaction, protein samples were prepared using RIPA buffer containing benzonase (E1014-25KU, Sigma-Aldrich). Protein concentration was measured by DC assay (U.S. Pat. Nos. 5,000,113, 5,000,114, 5,000,115, Biorad). 30 μg protein out of each sample was separated on a SDS-page gel (3450125, Biorad) and transferred to a nitrocellulose membrane (10600014, Sigma-Aldrich) at 0.4 A for 1 h. The membranes were blocked by 5% BLOT-QuickBlocker in PBS-T at room temperature for 1 h (786-011, Bioscience) and incubated with primary antibodies at 4° C. overnight. Then, fluorophor conjugated secondary antibodies diluted 1:500 in 2×BLOT-QuickBlocker in PBS-T were added onto the membrane for 1 h at room temperature. Protein bands were visualized by a Odyssey® DLx Imaging System (Licor). The following primary antibodies were used: NUDT5 (ab129172, Abeam, 1:1000, anti-rabbit) or NUDT5 (sc-398644, 1:200, anti-mouse), β-actin (sc-69879, Santa Cruz Biotechnology, 1:200) and PPAT (15401-1-AP, Proteintech, 1:1000). The following secondary antibodies were used: Alexa Fluor 750 goat anti-mouse IgG (A21037, Life technologies) and goat anti-rabbit IgG (H+L) cross-adsorbed secondary Antibody, Alexa Fluor 647 (A21244, Life technologies).
HAP-1 WT cells were treated with 100 nM TH5427, dNUDT5 or DMSO for 20 h in a 100 mm dish. […]

In a further series the target is NUDT5 (Homo sapiens, UniProt Q9UKK9). In words: NUDT5 degradation by Western blot in HAP-1 cells. Set-up: endogenous in cells. Here is the method:
For Western blots, proteins were separated on polyacrylamide gels with SDS running buffer (50 mM Tris, 380 mM Glycine, 7 mM SDS) and transferred to PVDF membranes. All membranes were then blocked with blocking buffer (5% w/v milk powder, BioRad) in TBST (50 mM Tris (tris(hydroxymethylaminomethane), 150 mM NaCl, 0.05% (v/v) Tween 20, adjusted to pH 7.6) Proteins were probed with antibodies against phospho-AMPK (50081S, 1:2000, Cell Signaling Technologies), AMPK (5832S, 1:2000, Cell Signaling Technologies), PML (ab179466, 1:1000, abeam), PARP8 (NBP213733, 1:1000, Novus Biologicals), ATF2/7 (82870, 1:1000, Cell Signaling Technologies), alpha-Tubulin (ab7291, 1:1000, Abeam), phospho-UBTF (ab182583, 1:1000, abeam), UBTF (HPA006385, 1:1000, Sigma), RBM38 (AV40862, 1:1000, Sigma), or NUDT5 (ab129172, 1:1000, abeam), detected by HRP (horse-radish peroxidase) conjugated donkey anti-rabbit IgG antibody (Pierce) or donkey anti-mouse antibody IgG antibody (Pierce) and visualized with Clarity ECL Western Blotting substrate (BioRad), according to provided protocol.
(In western blotting, separated proteins are transferred to a membrane and probed.)

Structures are written as SMILES.

As usually defined, the DC50 is the concentration at which degradation of the target reaches its halfway point. A low value points to degradation at low concentration. As to `Cn1c(=O)c2c(nc(N3CCN(C(=O)N4CCC(CN5CCN(c6ccc7c(c6)C(=O)N(C6CCC(=O)NC6=O)C7=O)CC5)CC4)CC3)n2Cc2nnc(-c3ccc(Cl)c(Cl)c3)o2)n(C)c1=O` (stereo not drawn) [dNUDT5, 7-((5-(3,4-dichlorophenyl)-1,3,4-oxadiazol-2-yl)methyl)-8-(4-(4-((4-(2-(2,6-dioxopiperidin-3-yl)-1,3-dioxoisoindolin-5-yl)piperazin-1-yl)methyl)piperidine-1-carbonyl)piperazin-l-yl)-1,3-dimethyl-3,7-dihydro-1H-purine-2,6-dione], the “NUDT5 engagement / recruitment” value at luciferase-tagged NUDT5 is recorded as “engaged their cognate target NUDT5 in live cells”. Besides, the “effect on viability of WT cells” value with WT HAP1 cells was “did not affect the viability of WT cells”. Further, the “rescue of 6-TG toxicity” value in the series with HAP-1 cells was “able to rescue 6-TG toxicity”. Besides, the “amount of NUDT5 interacting with PPAT” value at NUDT5-PPAT interaction is on record as “strongly reduced the amount of NUDT5 interacting with PPAT”. For the same compound, the DC50 at NUDT5 was 0.3 nM.
